Assay results reported in US20140328847A1, “MITIGATION OF DISEASE BY INHIBITION OF GALECTIN-12” (The Regents of the University of California, priority 2011, published 2014).

Legend:
[1] = system: adipocytes from Lgals12^+/+ and Lgals12^−/− mice; experiment: Lipolysis assay in primary adipocytes from Lgals12+/+ and Lgals12−/− mice (glycerol release); assay type: cell-based, mouse; conditions: for lipolysis (glycerol release): 1 h, 37° C.; for cAMP/dbcAMP-stimulated lipolysis: in the presence of adenylyl cyclase inhibitor SQ 22536, FIG. 9G
Experimental: (A) Adipocytes from the epididymal fat depots of Lgals12^+/+ and Lgals12^-/- mice were incubated with indicated concentrations of isoproterenol before being separated into cytosol and fat cake. Lipolytic proteins in each fraction were analyzed by Western blotting with indicated antibodies. (B) Quantification of lipid droplet (LD)-associated p-HSL and HSL by densitometry of Western blots (n=3 for each genotype). […] (D) Quantification of LD-associated ATGL by densitometry of Western blots (n=3 for each genotype). […] Asterisks denote statistical significance (p<0.05). Results are representative of three experiments. FIGS. 10A-C illustrate (A) Adipocytes from Lgals12^+/+ and -/- mice (n=3) were incubated with 1 U/ml ADA and increasing concentrations of PIA for 1 h at 37° C. and glycerol release was measured. Results were expressed as both absolute values and as % of glycerol release in the absence of PIA. (B) Adipocytes from Lgals12+/+ and Lgals12^-/- mice (n=3 each) were incubated with or without 10 μM cilostamide (Cilo) or 25 μM rolipram (Roli), individually or in combination, for 2 h at 37° C. Lipolysis was determined by measuring glycerol release. (C) Insulin suppression of lipolysis in adipocytes stimulated with 20 nM isoproterenol (% of maximal release in the absence of insulin). Asterisks denote statistical significance (p<0.05). Similar results were obtained in three experiments. Adipocytes were isolated from gonadal fat depots in Krebs-Ringer HEPES (KRH) buffer by collagenase digestion and floatation ([…] Lipid Res 47:1859-1864). After the final wash, cell density and triglyceride content of the adipocyte suspension were determined as described (Fine […] (1997) Int J Obes Relat Metab Disord 21:764-768.). We monitored lipolysis in adipocytes isolated from random-fed Lgals12^+/+ and Lgals12^-/- mice on regular diet, by measuring fatty acid and glycerol release, as described ([…] Lipid Res 47:1859-1864), with minor modifications. Briefly, 2.5×10^5 cells were incubated in 0.3 ml KRH/3% FAA-free BSA (for basal lipolysis), or KRH/3% FAA-free BSA containing indicated concentrations of lipolysis stimulators or inhibitors (Sigma) for 0-2 h at 37° C. with shaking at 150 rpm. At the end of the incubation, glycerol and NEFA released into the infranatant was determined with the Free Glycerol Reagent (Sigma) and the Nonesterified Fatty Acids Kit ([…]), respectively.

galectin-12 [2] = target: T1, galectin-12 (Mus musculus, UniProt Q91VD1); experiment: Association of galectin-12 with lipid droplets purified from mouse adipocyte homogenates; conditions: lactose 25 mM present during lipid droplet purification; FIG. 5B
T1 construct: from tissue; host or cells: primary mouse adipocytes from epididymal fat depot
T1 sequence (Q91VD1 1-314): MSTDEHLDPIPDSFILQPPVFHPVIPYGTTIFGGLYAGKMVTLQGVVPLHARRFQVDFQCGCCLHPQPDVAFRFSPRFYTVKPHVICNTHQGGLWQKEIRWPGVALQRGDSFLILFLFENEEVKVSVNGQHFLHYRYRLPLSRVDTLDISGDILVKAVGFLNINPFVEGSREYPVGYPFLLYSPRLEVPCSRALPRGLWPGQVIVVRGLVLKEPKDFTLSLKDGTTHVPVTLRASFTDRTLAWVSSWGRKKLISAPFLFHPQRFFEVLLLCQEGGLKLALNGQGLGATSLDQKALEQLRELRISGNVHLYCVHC
Experimental: (§1) FIGS. 5A-B illustrate association of galectin-12 with lipid droplets is not inhibited by lactose. (A) Mouse adipocytes from epididymal fat depot were lyzed and the lysates were incubated with fetuin-agarose, in the absence (−) or presence (+) of 25 mM lactose. Bound proteins were eluted with SDS-sample buffer and galectin-12 was detected by Western blotting. (B) Lipd droplets were purified from mouse adipocyte homogenates in the absence (−) or presence (+) of 25 mM lactose. Galectin-12 was detected as in (A).
(§2) To test whether galectin-12 association with lipid droplets is glycan-dependent, we also purified lipid droplets in the presence of lactose.

galectin-12 [3] = target: T1, galectin-12; experiment: Binding of galectin-12 from mouse adipocyte lysates to fetuin-agarose (Western blotting); conditions: lactose 25 mM; mouse epididymal adipocyte lysates; FIG. 5A
Experimental: as §1, §2

Question: `CC(Cc1ccccc1)Nc1ncnc2c1ncn2[C@@H]1O[C@H](CO)[C@@H](O)[C@H]1O` (single isomer, unassigned; (-)) [PIA, (−)-N6-(2-Phenylisopropyl)adenosine] was tested. Which “lipolysis (glycerol release)” value ([1]; increasing concentrations of PIA with 1 U/ml ADA, FIG. 10A) did it give?
Answer: The value was “suppressed lipolysis in both genotypes with similar efficiencies”.

Question: How did the “lipolysis (glycerol release)” value ([1]; 0.1 mM IBMX, both Lgals12+/+ and Lgals12−/− adipocytes, FIG. 9F) turn out when `CC(C)Cn1c(=O)n(C)c(=O)c2[nH]cnc21` [IBMX, 3-isobutyl-1-methylxanthine] was run?
Answer: Its value is “greatly enhanced”.

Question: `OC[C@H]1O[C@@H](O[C@H]2[C@H](O)[C@@H](O)C(O)O[C@@H]2CO)[C@H](O)[C@@H](O)[C@H]1O` (stereo partly shown) [Lactose] was tested. Which “galectin-12 association with lipid droplets” value (galectin-12 [2]) did it give?
Answer: The value was “did not affect”.

Question: And the “binding of galectin-12 to fetuin-agarose” value (galectin-12 [3])?
Answer: Its value is “completely inhibited”.

Question: With `Nc1ncnc2c1ncn2[C@@H]1O[C@@H]2COP(=O)(O)O[C@H]2[C@H]1O` [cAMP, cyclic adenosine monophosphate] as the compound, how does the cAMP/dbcAMP-stimulated lipolysis [1] read?
Answer: The cAMP/dbcAMP-stimulated lipolysis was “stimulated greater lipolysis in Lgals12^−/− adipocytes than in Lgals12^+/+ adipocytes”.

Question: Which cAMP/dbcAMP-stimulated lipolysis [1] does the source give for `CCCC(=O)Nc1ncnc2c1ncn2[C@@H]1O[C@@H]2COP(=O)(O)O[C@H]2[C@H]1OC(=O)CCC` [dbcAMP, dibutyryl cAMP] here?
Answer: Its cAMP/dbcAMP-stimulated lipolysis is “induced comparable lipolysis in adipocytes of the two genotypes”.

Question: With insulin as the compound, how does the “insulin suppression of lipolysis” value ([1]; Lgals12−/− adipocytes stimulated with 20 nM isoproterenol, FIG. 10C) read?
Answer: The value was “remained sensitive”.
